Source: patent US10959432B2, “Microbiocidal oxadiazole derivatives” (Syngenta Participations AG, priority 2016, dated 2021)

Assays:
[1] = test system: Puccinia recondita f. sp. tritici; test: Fungicidal activity against Puccinia recondita f. sp. tritici / wheat / leaf disc preventative (brown rust); assay type: in vivo; conditions: foliar, 200 ppm in the applied formulation, wheat leaf segments cv. Kanzler, preventative (inoculated 1 day after application), assessed 7 to 9 days after application, read-out: disease control compared to untreated control leaf disks
How it was run: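 Wheat cv. Kanzler leaf segments on agar sprayed with formulated compound diluted in water, inoculated with P. recondita spores 1 day later. Incubated at 19C, 75% rh, 12 h light/12 h dark; scored 7 to 9 days after application as percent disease control versus untreated segments. Test rate 200 ppm.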

[2] = test system: Puccinia recondita f. sp. tritici; test: Fungicidal activity against Puccinia recondita f. sp. tritici / wheat / leaf disc curative (brown rust); assay type: in vivo; conditions: foliar, 200 ppm in the applied formulation, wheat leaf segments cv. Kanzler, curative (applied 1 day after inoculation), assessed 6 to 8 days after application, read-out: disease control compared to untreated control leaf disks
How it was run: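 Wheat cv. Kanzler leaf segments on agar, spore-inoculated, held dark at 19° C./75% RH; formulated compound in water sprayed 1 day post-inoculation (curative). Incubated 19° C., 75% RH, 12 h light/12 h dark; percent disease control vs untreated scored 6 to 8 days after application.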

Phakopsora pachyrhizi = test: Fungicidal activity against Phakopsora pachyrhizi / soybean / leaf disc preventative (Asian soybean rust); assay type: in vivo; conditions: foliar, 200 ppm in the applied formulation, soybean leaf disks, preventative (inoculated one day after application), assessed 12 to 14 days after application, read-out: disease control compared to untreated control leaf disks
How it was run: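 Soybean leaf discs on water agar sprayed with formulated compound diluted in water; spore suspension sprayed on lower leaf surface one day later. Incubated 24-36 h dark at 20° C, 75% rh, then 20° C, 12 h light/day, 75% rh. Percent disease control versus untreated scored 12 to 14 days after application.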

Uromyces viciae-fabae = test: Fungicidal activity against Uromyces viciae-fabae / field bean / leaf disc preventative (faba-bean rust); assay type: in vivo; conditions: foliar, 288 h, 100 ppm in the applied formulation, field bean leaf discs, preventative (inoculated two hours after application), assessed 12 days after application, read-out: disease control compared to untreated control leaf discs
How it was run: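 Field bean leaf discs on water agar treated with 10 μl compound in acetone plus spreader, then spray-inoculated on the lower surface with Uromyces viciae-fabae spores 2 h later. Incubation at 22 °C, 18 h day, 70% RH; percent disease control versus untreated scored 12 days after application, compounds at 100 ppm.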

[3] = test system: Glomerella laqenarium (Colletotrichum lagenarium); test: Fungicidal activity against Glomerella lagenarium (Colletotrichum lagenarium) liquid culture / cucumber / preventative (anthracnose); assay type: cell-based; conditions: Colletotrichum orbiculare; 20 ppm in the applied formulation; liquid culture in PDB, 24° C., 3 to 4 days after application; read-out: disease control compared to untreated control (inhibition of growth measured photometrically)
How it was run: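 Cryostored conidia mixed into potato dextrose broth and added to test compound (from DMSO solution) in microtiter plates. Incubated at 24 °C; growth inhibition read photometrically 3 to 4 days after application, as percent activity versus untreated check.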

Row | SMILES | melting point | pest or weed control at 200 ppm [1] | pest or weed control at 200 ppm [2] | pest or weed control at 200 ppm (Phakopsora pachyrhizi) | pest or weed control at 100 ppm (Uromyces viciae-fabae) | inhibition at 20 ppm [3]
1 | CC#CC(C)(C)NC(=O)c1ccc(-c2noc(C(F)(F)F)n2)cc1 [Compound 3a.5, N-(1,1-dimethylbut-2-ynyl)-4-[5-(trifluoromethyl)-1,2,4-oxadiazol-3-yl]benzamide] | 104 to 105.1 °C | ≥ 80% | ≥ 80% | ≥ 80% | ≥ 80% | 
2 | Cc1ccc(CNC(=O)c2ccc(-c3noc(C(F)(F)F)n3)cc2)cc1 [Compound 4a.1, N-(p-tolylmethyl)-4-[5-(trifluoromethyl)-1,2,4-oxadiazol-3-yl]benzamide] | 198 to 203 °C |  |  | ≥ 80% | ≥ 80% | ≥ 80%
3 | CC(C)CC(C)NC(=O)c1ccc(-c2noc(C(F)(F)F)n2)cc1F (stereo not shown) [Compound 3b.7, N-(1,3-dimethylbutyl)-2-fluoro-4-[5-(trifluoromethyl)-1,2,4-oxadiazol-3-yl]benzamide] | 108.5 to 110.4 °C | ≥ 80% |  | ≥ 80% | ≥ 80% | ≥ 80%
4 | O=C(NCCOC(F)F)c1ccc(-c2noc(C(F)(F)F)n2)cc1 [Compound 3a.45, N-[2-(difluoromethoxy)ethyl]-4-[5-(trifluoromethyl)-1,2,4-oxadiazol-3-yl]benzamide] | 117 to 120 °C | ≥ 80% | ≥ 80% | ≥ 80% |  | ≥ 80%
5 | COc1ccc(CNC(=O)c2ccc(-c3noc(C(F)(F)F)n3)cc2)cc1 [Compound 4a.3, N-[(4-methoxyphenyl)methyl]-4-[5-(trifluoromethyl)-1,2,4-oxadiazol-3-yl]benzamide] | 154 to 159 °C | ≥ 80% |  | ≥ 80% | ≥ 80% | ≥ 80%
6 | CC(C)(CO)NC(=O)c1ccc(-c2noc(C(F)(F)F)n2)cc1 [Compound 3a.17, N-(2-hydroxy-1,1-dimethyl-ethyl)-4-[5-(trifluoromethyl)-1,2,4-oxadiazol-3-yl]benzamide] | 130 to 135 °C | ≥ 80% | ≥ 80% |  | ≥ 80% | ≥ 80%
7 | CC(COC(F)F)NC(=O)c1ccc(-c2noc(C(F)(F)F)n2)cc1 (stereo not shown) [Compound 3a.43, N-[2-(difluoromethoxy)-1-methyl-ethyl]-4-[5-(trifluoromethyl)-1,2,4-oxadiazol-3-yl]benzamide] | 128 to 130 °C | ≥ 80% | ≥ 80% | ≥ 80% |  | ≥ 80%
8 | Cc1cccc(CNC(=O)c2ccc(-c3noc(C(F)(F)F)n3)cc2)c1 [Compound 4a.2, N-(m-tolylmethyl)-4-[5-(trifluoromethyl)-1,2,4-oxadiazol-3-yl]benzamide] | 135 to 141 °C | ≥ 80% |  | ≥ 80% | ≥ 80% | ≥ 80%
9 | Cc1ccc(CNC(=O)c2ccc(-c3noc(C(F)(F)F)n3)cc2Cl)o1 [Compound 5b.16, 2-chloro-N-[(5-methyl-2-furyl)methyl]-4-[5-(trifluoromethyl)-1,2,4-oxadiazol-3-yl]benzamide] |  | ≥ 80% | ≥ 80% | ≥ 80% | ≥ 80% | ≥ 80%

More lines, main results first:

Row | melting point | SMILES | pest or weed control at 200 ppm [1] | pest or weed control at 200 ppm [2] | pest or weed control at 200 ppm (Phakopsora pachyrhizi) | pest or weed control at 100 ppm (Uromyces viciae-fabae) | inhibition at 20 ppm [3]
10 | 146 to 147.7 °C | O=C(NCc1ccccc1)c1ccc(-c2noc(C(F)(F)F)n2)cc1F [Compound 4b.6, N-benzyl-2-fluoro-4-[5-(trifluoromethyl)-1,2,4-oxadiazol-3-yl]benzamide] | ≥ 80% | ≥ 80% | ≥ 80% | ≥ 80% | 
11 | 126.6 to 128.3 °C | O=C(NCc1ncc(C(F)(F)F)cc1Cl)c1ccc(-c2noc(C(F)(F)F)n2)cc1F [Compound 5b.4, N-[[3-chloro-5-(trifluoromethyl)-2-pyridyl]methyl]-2-fluoro-4-[5-(trifluoromethyl)-1,2,4-oxadiazol-3-yl]benzamide] |  |  | ≥ 80% | ≥ 80% | 
12 | 144.9 to 146.5 °C | O=C(NCCc1ncc(C(F)(F)F)cc1Cl)c1ccc(-c2noc(C(F)(F)F)n2)cc1F [Compound 5b.5, N-[2-[3-chloro-5-(trifluoromethyl)-2-pyridyl]ethyl]-2-fluoro-4-[5-(trifluoromethyl)-1,2,4-oxadiazol-3-yl]benzamide] |  |  | ≥ 80% | ≥ 80% | 
13 | 113.3 to 114.8 °C | COc1ccccc1CNC(=O)c1ccc(-c2noc(C(F)(F)F)n2)cc1F [Compound 4b.5, 2-fluoro-N-[(2-methoxyphenyl)methyl]-4-[5-(trifluoromethyl)-1,2,4-oxadiazol-3-yl]benzamide] | ≥ 80% |  | ≥ 80% | ≥ 80% | ≥ 80%
14 | 130 to 131.9 °C | O=C(NCCc1ccccc1)c1ccc(-c2noc(C(F)(F)F)n2)cc1F [Compound 4b.8, 2-fluoro-N-(2-phenylethyl)-4-[5-(trifluoromethyl)-1,2,4-oxadiazol-3-yl]benzamide] | ≥ 80% |  | ≥ 80% | ≥ 80% | ≥ 80%
15 | 121.1 to 123.7 °C | CC(NC(=O)c1ccc(-c2noc(C(F)(F)F)n2)cc1F)c1ccccc1 (stereo not shown) [Compound 4b.3, 2-fluoro-N-(1-phenylethyl)-4-[5-(trifluoromethyl)-1,2,4-oxadiazol-3-yl]benzamide] | ≥ 80% |  | ≥ 80% | ≥ 80% | 
16 | 128.2 to 129.4 °C | O=C(NCCc1ccc(F)cc1)c1ccc(-c2noc(C(F)(F)F)n2)cc1F [Compound 4b.7, 2-fluoro-N-[2-(4-fluorophenyl)ethyl]-4-[5-(trifluoromethyl)-1,2,4-oxadiazol-3-yl]benzamide] | ≥ 80% |  | ≥ 80% | ≥ 80% | ≥ 80%
17 | 132 to 136 °C | O=C(NCc1ccccc1F)c1ccc(-c2noc(C(F)(F)F)n2)cc1F [Compound 4b.1, 2-fluoro-N-[(2-fluorophenyl)methyl]-4-[5-(trifluoromethyl)-1,2,4-oxadiazol-3-yl]benzamide] | ≥ 80% |  | ≥ 80% | ≥ 80% | ≥ 80%
18 | 145 to 147 °C | O=C(NCc1ccc(F)cc1)c1ccc(-c2noc(C(F)(F)F)n2)cc1F [Compound 4b.2] | ≥ 80% |  | ≥ 80% | ≥ 80% | ≥ 80%
19 | 129.4 to 130.9 °C | O=C(NCc1cccc(F)c1)c1ccc(-c2noc(C(F)(F)F)n2)cc1F [Compound 4b.4, 2-fluoro-N-[(3-fluorophenyl)methyl]-4-[5-(trifluoromethyl)-1,2,4-oxadiazol-3-yl]benzamide] | ≥ 80% |  | ≥ 80% | ≥ 80% | 
20 | 142.7 to 143 °C | O=C(NCc1cccs1)c1ccc(-c2noc(C(F)(F)F)n2)cc1F [Compound 5b.1, 2-fluoro-N-(2-thienylmethyl)-4-[5-(trifluoromethyl)-1,2,4-oxadiazol-3-yl]benzamide] | ≥ 80% | ≥ 80% | ≥ 80% | ≥ 80% | 
21 | 122 to 125.6 °C | O=C(NCC1CCCC1)c1ccc(-c2noc(C(F)(F)F)n2)cc1F [Compound 2b.8, N (cyclopentylmethyl)-2-fluoro-4-[5-(trifluoromethyl)-1,2,4-oxadiazol-3-yl]benzamide] |  |  | ≥ 80% | ≥ 80% | ≥ 80%
